Tests used:
[1] = target: T1, h-GABA-A α5β3γ2 (Homo sapiens (Human), UniProt P18507+P31644); experiment: Two-electrode voltage clamp electrophysiology in Xenopus oocytes expressing GABAA receptors, modulation of GABA EC20 current; type: cell-based; settings: Xenopus oocytes; for Efficacy (GABA) %: % modulation of GABA EC20 = 100*(Fold increase−1); for Fold increase h-GABA-A α5β3γ2 oocyte: GABA EC20, test compound at approx. 30 fold its Ki
Protocol: Xenopus laevis oocytes at maturation stages V-VI were used for the expression of cloned mRNA encoding GABAA receptor subunits. Oocytes ready for RNA micro-injection were bought from Ecocyte, Castrop-Rauxel, Germany and stored in modified Barth's medium (composition in mM: NaCl 88, KCl 1, NaHCO32.4, HEPES 10, MgSO4 0.82, CaNO3 0.33, CaCl2) 0.33, pH=7.5) at 20° C. until the experiment.
Oocytes were plated in 96-well plates to be used in an automated instrument (Robo-ocyte, MultiChannelSystems, Reutlingen, Germany) for microinjection and electrophysiological recordings. Approximately 50 nl of an aqueous solution containing the RNA transcripts for the subunits of the desired GABAA receptor was injected into each oocyte. RNA concentrations ranged between 0.3 and 16 ng/μl/subunit and were adjusted in pilot experiments to obtain GABA responses of a suitable size and a maximal effect of the reference modulator, Beta-CCM (β-CCM), a betacarboline negative allosteric modulator (NAM) at the GABAA receptor benzodiazepine (BZD) binding site or Midazolam, a benzodiazepine positive allosteric modulator (PAM) at the GABAA receptor benzodiazepine (BZD) binding site. The concentration of the γ2 subunit encoding RNA usually was 5-to 10-fold higher than the RNAs encoding the other subunits. Oocytes were kept in modified Barth's medium (composition in mM: NaCl 88, KCl 1, NaHCO3 4, HEPES 10, MgSO4 0.82, CaNO3 0.33, CaCl2 0.33, pH=7.5) at 20° C. until the experiment.
Electrophysiological experiments were performed on days 3 to 5 after the micro-injection of mRNA. During the experiment the oocytes were constantly superfused by a solution containing (in mM) NaCl 90, KCl 1, HEPES 5, MgCl2 1, CaCl2 1 (pH 7.4). Oocytes were impaled by two glass microelectrodes (resistance: 0.4 MΩ) which were filled with a solution containing KCl 1M+K-acetate 1.5 M and voltage-clamped to −80 mV. The recordings were performed at room temperature using the Roboocyte two-electrode voltage clamp system (Multichannelsystem). After an initial equilibration period of 1.5 min GABA was added for 1.5 min at a concentration evoking approximately 20% of a maximal current response (EC20). After another rest interval of 2.5 min GABA was again added evoking a response of similar amplitude and shape. […] Current traces were recorded at a digitization rate of 10 Hz during and shortly before and after the GABA application.
Each compound and concentration was tested on at least 3 oocytes.
For the analysis, the digitized current traces of the first and second GABA response were superimposed and, if necessary, rescaled to equal maximal amplitudes. The ratio between the two responses during the time interval of test compound application was calculated point by point. The extremum of the resulting “ratio trace” was taken as the efficacy (“Fold increase”) of the compound expressed as “% modulation of GABA EC20” (100*(Fold increase−1)).

[2] = target: T1, h-GABA-A α5β3γ2; experiment: [3H]flumazenil competition binding assay, membranes of HEK293 cells expressing human GABAA receptors; settings: displacement of [3H]flumazenil 0.5 nM, HEK293 cells expressing human receptors, mean of two determinations; read-out: Ki h-GABA-A α5β3γ2
Protocol: The affinity of compounds at GABAA receptor subtypes was measured by competition for [3H]flumazenil (85 Ci/mmol; Roche) binding to HEK293 cells expressing rat (stably transfected) or human (transiently transfected) receptors of composition α1β3γ2, α2β3γ2, α3β3γ2 and α5β3γ2.
Cell pellets were suspended in Krebs-tris buffer (4.8 mM KCl, 1.2 mM CaCl2, 1.2 mM MgCl2, 120 mM NaCl, 15 mM Tris; pH 7.5; binding assay buffer), homogenized by polytron for ca. 20 sec on ice and centrifuged for 60 min at 4° C. (50000 g; Sorvall, rotor: SM24=20000 rpm). The cell pellets were resuspended in Krebs-tris buffer and homogenized by polytron for ca. 15 sec on ice. Protein was measured (Bradford method, Bio-Rad) and aliquots of 1 mL were prepared and stored at −80° C.
Assays were incubated to equilibrium for 1 hour at 4° C. and harvested onto GF/C uni-filters (Packard) by filtration using a Packard harvester and washing with ice-cold wash buffer (50 mM Tris; pH 7.5). After drying, filter-retained radioactivity was detected by liquid scintillation counting. Ki values were calculated using Excel-Fit (Microsoft) and are the means of two determinations.

| Efficacy (GABA) % [1] | Fold increase h-GABA-A α5β3γ2 oocyte [1] | Ki [2] | SMILES |
| --- | --- | --- | --- |
| 89% | 1.89 | 14.6 nM | Cc1ccc(-c2noc(C)c2COc2ccc(C(=O)NCC(C)C)nn2)cn1 [Example 39, N-isobutyl-6-((5-methyl-3-(6-methylpyridin-3-yl)isoxazol-4-yl)methoxy)pyridazine-3-carboxamide] |
| 91% | 1.91 | 10.6 nM | Cc1ccc(-c2noc(C)c2COc2ccc(C(=O)NCC(F)(F)F)nn2)cn1 [Example 40, 6-((5-methyl-3-(6-methylpyridin-3-yl)isoxazol-4-yl)methoxy)-N-(2,2,2-trifluoroethyl)pyridazine-3-carboxamide] |
| 104% | 2.04 | 19.4 nM | Cc1ccc(-c2noc(C)c2COc2ccc(C(=O)NC(C)(C)C)nn2)cn1 [Example 41, N-tert-butyl-6-((5-methyl-3-(6-methylpyridin-3-yl)isoxazol-4-yl)methoxy)pyridazine-3-carboxamide] |
| 81% | 1.81 | 8.9 nM | Cc1ccc(-c2noc(C)c2COc2ccc(C(=O)NC3CC(F)(F)C3)nn2)cn1 [Example 42, N-(3,3-difluorocyclobutyl)-6-((5-methyl-3-(6-methylpyridin-3-yl)isoxazol-4-yl)methoxy)pyridazine-3-carboxamide] |
| 82% | 1.82 | 16.4 nM | Cc1ccc(-c2noc(C)c2COc2ccc(C(=O)NC3CCC(F)(F)CC3)nn2)cn1 [Example 43, N-(4,4-difluorocyclohexyl)-6-((5-methyl-3-(6-methylpyridin-3-yl)isoxazol-4-yl)methoxy)pyridazine-3-carboxamide] |
| 63% | 1.63 | 3.5 nM | CNC(=O)c1ccc(OCc2c(-c3ccc(C)nc3)noc2C)nn1 [Example 46, N-methyl-6-((5-methyl-3-(6-methylpyridin-3-yl)isoxazol-4-yl)methoxy)pyridazine-3-carboxamide] |

Further lines, the compound ahead of its results:

| SMILES | Efficacy (GABA) % [1] | Fold increase h-GABA-A α5β3γ2 oocyte [1] | Ki [2] |
| --- | --- | --- | --- |
| Cc1ccc(-c2noc(C)c2COc2cc3c(cn2)C(=O)N(C2CCOCC2)C3)cn1 [Example 22, 6-((5-methyl-3-(6-methylpyridin-3-yl)isoxazol-4-yl)methoxy)-2-(tetrahydro-2H-pyran-4-yl)-1H-pyrrolo[3,4-c]pyridin-3(2H)-one] | 44% | 1.44 | 10.8 nM |
| Cc1ccc(-c2noc(C)c2COc2ccc(C(=O)N[C@H]3CCCC[C@@H]3O)nn2)cn1 [Example 24, N-((1S,2S)-2-hydroxycyclohexyl)-6-((5-methyl-3-(6-methylpyridin-3-yl)isoxazol-4-yl)methoxy)pyridazine-3-carboxamide] | 63% | 1.63 | 41.6 nM |
| Cc1ccc(-c2noc(C)c2COc2ccc(C(=O)N[C@@H]3CCCC[C@H]3O)nn2)cn1 [Example 25, N-((1R,2R)-2-hydroxycyclohexyl)-6-((5-methyl-3-(6-methylpyridin-3-yl)isoxazol-4-yl)methoxy)pyridazine-3-carboxamide] | 59% | 1.59 | 9.4 nM |
| Cc1ccc(-c2noc(C)c2COc2ccc(C(=O)NC3CC3)nn2)cn1 [Example 26, N-cyclopropyl-6-((5-methyl-3-(6-methylpyridin-3-yl)isoxazol-4-yl)methoxy)pyridazine-3-carboxamide] | 80% | 1.8 | 5.2 nM |
| Cc1ccc(-c2noc(C)c2COc2ccc(C(=O)N[C@@H]3CCCC[C@@H]3O)nn2)cn1 [Example 27, N-((1R,2S)-2-hydroxycyclohexyl)-6-((5-methyl-3-(6-methylpyridin-3-yl)isoxazol-4-yl)methoxy)pyridazine-3-carboxamide] | 54% | 1.54 | 12.3 nM |
| Cc1ccc(-c2noc(C)c2COc2ccc(C(=O)N[C@@H]3CCOC[C@H]3O)nn2)cn1 [Example 28, N-((3S,4R)-3-hydroxytetrahydropyran-4-yl)-6-((5-methyl-3-(6-methylpyridin-3-yl)isoxazol-4-yl)methoxy)pyridazine-3-carboxamide] | 52% | 1.52 | 8 nM |
| Cc1ccc(-c2noc(C)c2COc2ccc(C(=O)NCCO)nn2)cn1 [Example 29, N-(2-hydroxyethyl)-6-((5-methyl-3-(6-methylpyridin-3-yl)isoxazol-4-yl)methoxy)pyridazine-3-carboxamide] | 81% | 1.81 | 8 nM |
| Cc1ccc(-c2noc(C)c2COc2ccc(C(=O)NC3CCS(=O)(=O)CC3)nn2)cn1 [Example 30, N-(1,1-dioxothian-4-yl)-6-((5-methyl-3-(6-methylpyridin-3-yl)-1,2-oxazol-4-yl)methoxy)pyridazine-3-carboxamide] | 94% | 1.94 | 12.4 nM |
| Cc1ccc(-c2noc(C)c2COc2ccc(C(=O)NCC3CC3)nn2)cn1 [Example 31, N-(cyclopropylmethyl)-6-((5-methyl-3-(6-methylpyridin-3-yl)isoxazol-4-yl)methoxy)pyridazine-3-carboxamide] | 102% | 2.02 | 14.2 nM |
| Cc1ccc(-c2noc(C)c2COc2ccc(C(=O)NC(C)(C)CO)nn2)cn1 [Example 32] | 79% | 1.79 | 8.5 nM |
| Cc1ccc(-c2noc(C)c2COc2ccc(C(=O)NCCC#N)nn2)cn1 [Example 33, N-(2-cyanoethyl)-6-((5-methyl-3-(6-methylpyridin-3-yl)isoxazol-4-yl)methoxy)pyridazine-3-carboxamide] | 76% | 1.76 | 11.6 nM |
| Cc1ccc(-c2noc(C)c2COc2ccc(C(=O)NC3COC3)nn2)cn1 [Example 35, 6-((5-methyl-3-(6-methylpyridin-3-yl)isoxazol-4-yl)methoxy)-N-(oxetan-3-yl)pyridazine-3-carboxamide] | 82% | 1.82 | 4.4 nM |
| CCNC(=O)c1ccc(OCc2c(-c3ccc(C)nc3)noc2C)nn1 [Example 37, N-ethyl-6-((5-methyl-3-(6-methylpyridin-3-yl)isoxazol-4-yl)methoxy)pyridazine-3-carboxamide] | 73% | 1.73 | 7.6 nM |
| Cc1ccc(-c2noc(C)c2COc2ccc(C(=O)NC(C)C)nn2)cn1 [Example 38, N-isopropyl-6-((5-methyl-3-(6-methylpyridin-3-yl)isoxazol-4-yl)methoxy)pyridazine-3-carboxamide] | 84% | 1.84 | 7.5 nM |
